Results as given in patent US10246429B2, “Vinyl fluoride cyclopropyl fused thiazin-2-amine compounds as beta-secretase inhibitors and methods of use” (AMGEN INC., priority 2015, dated 2019).

Key:
Cathepsin D (CatD) = Cathepsin D (CatD) (Homo sapiens (Human), UniProt P07339); experiment: CatD assay; type: biochemical; conditions: read-out: IC50 IP (μM) CatD
BACE1 [1] = biological target: T1, BACE1 (Homo sapiens (Human), UniProt P56817); experiment: BACE1 cell assay; type: cell-based
Target sequence in this assay (P56817 46-501, species assumed): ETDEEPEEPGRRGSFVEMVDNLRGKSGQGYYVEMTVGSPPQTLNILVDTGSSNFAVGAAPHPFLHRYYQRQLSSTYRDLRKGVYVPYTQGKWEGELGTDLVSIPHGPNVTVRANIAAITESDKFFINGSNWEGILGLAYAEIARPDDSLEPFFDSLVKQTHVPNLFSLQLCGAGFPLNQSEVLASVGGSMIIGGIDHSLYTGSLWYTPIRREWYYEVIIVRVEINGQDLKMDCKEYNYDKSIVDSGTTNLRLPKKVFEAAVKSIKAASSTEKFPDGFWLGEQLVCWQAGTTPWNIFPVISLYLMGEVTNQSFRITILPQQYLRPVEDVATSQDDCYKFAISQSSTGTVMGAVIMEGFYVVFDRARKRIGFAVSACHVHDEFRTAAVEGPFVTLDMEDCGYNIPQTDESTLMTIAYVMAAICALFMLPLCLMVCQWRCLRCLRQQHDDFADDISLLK

BACE1 [2] = biological target: T1, BACE1; experiment: In vitro enzymatic BACE1 FRET assay; type: biochemical; conditions: read-out: IC50 IP (μM) BACE1 Enzyme
Target sequence in this assay (P56817 46-501): as the sequence (P56817 46-501, species assumed) above
Source text: (§1) In Vitro Enzymatic BACE1 and BACE2 FRET (Fluorescence Resonance Energy Transfer) Assays (Enzyme Assay Data in Table 1)

BACE2 = BACE2 (Homo sapiens (Human), UniProt Q9Y5Z0); experiment: In vitro enzymatic BACE2 FRET assay; type: biochemical; conditions: read-out: IC50 IP (μM) BACE2 Enzyme
BACE2, sequence (Q9Y5Z0 63-518): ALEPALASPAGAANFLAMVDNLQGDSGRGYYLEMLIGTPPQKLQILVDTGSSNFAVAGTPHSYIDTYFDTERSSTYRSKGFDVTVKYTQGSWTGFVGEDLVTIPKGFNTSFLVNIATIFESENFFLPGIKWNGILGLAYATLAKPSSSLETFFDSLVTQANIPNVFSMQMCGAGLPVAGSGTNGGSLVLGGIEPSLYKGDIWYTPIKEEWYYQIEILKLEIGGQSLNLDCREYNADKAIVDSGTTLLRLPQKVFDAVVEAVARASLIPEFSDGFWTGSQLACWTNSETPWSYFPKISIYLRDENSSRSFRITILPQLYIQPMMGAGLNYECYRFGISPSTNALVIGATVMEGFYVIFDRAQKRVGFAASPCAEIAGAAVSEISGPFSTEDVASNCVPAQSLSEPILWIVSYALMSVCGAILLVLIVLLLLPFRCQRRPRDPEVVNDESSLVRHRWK
Source text: as §1

[3] = read-out: IC50 IP (μM) BACE1 Cell

Cathepsin D (CatD), sequence (P07339 65-412, species assumed): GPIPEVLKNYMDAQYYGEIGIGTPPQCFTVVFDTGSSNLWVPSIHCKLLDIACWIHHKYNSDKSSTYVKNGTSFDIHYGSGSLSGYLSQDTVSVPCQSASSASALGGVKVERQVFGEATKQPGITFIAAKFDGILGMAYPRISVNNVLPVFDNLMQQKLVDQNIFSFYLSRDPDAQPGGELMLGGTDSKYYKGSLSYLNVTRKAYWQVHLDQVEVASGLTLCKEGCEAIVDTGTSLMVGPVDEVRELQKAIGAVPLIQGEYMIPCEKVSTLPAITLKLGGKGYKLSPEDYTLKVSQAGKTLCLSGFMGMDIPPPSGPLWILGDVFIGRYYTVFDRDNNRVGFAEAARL

Row | Compound | IC50 (Cathepsin D (CatD)) | IC50 (BACE1 [1]; [3]) | IC50 (BACE1 [2]) | IC50 (BACE2) | IC50 (BACE1 [1])
1 | C[C@]1(c2cc(/C=C(\F)c3ccc(C#N)cn3)ccc2F)N=C(N)S[C@@]2(C(=O)N3CCOC4(CC4)C3)C[C@H]21 [Example 318, 6-((Z)-2-(3-((1S,5S,6S)-3-amino-5-methyl-1-(4-oxa-7-azaspiro[2.5]octane-7-carbonyl)-2-thia-4-azabicyclo[4.1.0]hept-3-en-5-yl)-4-fluorophenyl)-1-fluorovinyl)nicotinonitrile] | 108 µM | 0.0033 µM | 0.0029 µM | 0.051 µM | 
2 | CN(C)C(=O)[C@]12C[C@H]1[C@@](C)(c1cc(/C(F)=C/c3ccc(C#N)cc3)ccc1F)N=C(N)S2 [Example 221, (1S,5S,6S)-3-amino-5-(5-((Z)-2-(4-cyanophenyl)-1-fluorovinyl)-2-fluorophenyl)-N,N,5-trimethyl-2-thia-4-azabicyclo[4.1.0]hept-3-ene-1-carboxamide] | 48.6 µM |  | 0.128 µM | 0.302 µM | 0.575 µM
3 | CC#CCOc1cnc(/C(F)=C/c2cnc(F)c([C@@]3(C)N=C(N)S[C@@]4(C(=O)N(C)C)C[C@H]43)c2)cn1 [Example 289, (1S,5S,6S)-3-amino-5-(5-((Z)-2-(5-(but-2-yn-1-yloxy)pyrazin-2-yl)-2-fluorovinyl)-2-fluoropyridin-3-yl)-N,N,5-trimethyl-2-thia-4-azabicyclo[4.1.0]hept-3-ene-1-carboxamide] | 227 µM | 0.002 µM | 0.0008 µM | 0.022 µM | 
4 | CN(C)C(=O)[C@]12C[C@H]1[C@@](C)(c1cc(/C=C(\F)C#Cc3ccccc3)ccc1F)N=C(N)S2 [Example 207, (1S,5S,6S)-3-amino-5-(2-fluoro-5-((Z)-2-fluoro-4-phenylbut-1-en-3-yn-1-yl)phenyl)-N,N,5-trimethyl-2-thia-4-azabicyclo[4.1.0]hept-3-ene-1-carboxamide] | 14.6 µM | 0.335 µM | 0.005 µM | 0.018 µM | 
5 | CNC(=O)[C@]12C[C@H]1[C@@](C)(c1cc(/C=C(\F)c3ccc(OC(F)(F)F)cn3)ccc1F)N=C(N)S2 [Example 364, (1S,5S,6S)-3-amino-5-(2-fluoro-5-((Z)-2-fluoro-2-(5-(trifluoromethoxy)pyridin-2-yl)vinyl)phenyl)-N,5-dimethyl-2-thia-4-azabicyclo[4.1.0]hept-3-ene-1-carboxamide] | 256 µM | 0.025 µM | 0.008 µM | 0.285 µM | 
6 | COC[C@]12C[C@H]1[C@@](C)(c1cc(/C=C(\F)c3cnc(OCC(F)F)cn3)ccc1F)N=C(N)S2 [Example 266] | 409 µM | 1.51 µM | 0.591 µM | 1.58 µM | 
7 | C[C@]1(c2cc(/C=C(\F)c3ccc(C#N)cn3)ccc2F)N=C(N)S[C@@]2(C(=O)N3CCCC3c3ccccc3)C[C@H]21 (stereo partly drawn) [Example 337, 6-((Z)-2-(3-((1S,5S,6S)-3-amino-5-methyl-1-(2-phenylpyrrolidine-1-carbonyl)-2-thia-4-azabicyclo[4.1.0]hept-3-en-5-yl)-4-fluorophenyl)-1-fluorovinyl)nicotinonitrile] | 2.4 µM | 0.01 µM | 0.0044 µM | 0.046 µM | 
8 | C[C@@H]1CN(C(=O)[C@]23C[C@H]2[C@@](C)(c2cc(/C=C(\F)c4ccc(C#N)cn4)ccc2F)N=C(N)S3)[C@H](C)CO1 [Example 330, 6-((Z)-2-(3-((1S,5S,6S)-3-amino-1-((2R,5R)-2,5-dimethylmorpholine-4-carbonyl)-5-methyl-2-thia-4-azabicyclo[4.1.0]hept-3-en-5-yl)-4-fluorophenyl)-1-fluorovinyl)nicotinonitrile] | 138 µM | 0.0177 µM | 0.0086 µM | 0.239 µM | 
9 | CNC(=O)[C@]12C[C@H]1[C@@](C)(c1cc(/C=C(\F)c3cnc(Br)cn3)ccc1F)N=C(N)S2 [Example 163, (1S,5S,6S)-3-amino-5-(5-((Z)-2-(5-bromopyrazin-2-yl)-2-fluorovinyl)-2-fluorophenyl)-N,5-dimethyl-2-thia-4-azabicyclo[4.1.0]hept-3-ene-1-carboxamide] | 69.7 µM |  | 0.0249 µM | 0.266 µM | 0.291 µM
10 | CN(C)C(=O)[C@]12C[C@H]1[C@@](C)(c1cc(/C=C(\F)c3ccc(C#N)s3)ccc1F)N=C(N)S2 [Example 220, (1S,5S,6S)-3-amino-5-(5-((Z)-2-(5-cyanothiophen-2-yl)-2-fluorovinyl)-2-fluorophenyl)-N,N,5-trimethyl-2-thia-4-azabicyclo[4.1.0]hept-3-ene-1-carboxamide] | 26.4 µM | 0.022 µM | 0.011 µM | 0.002 µM | 
11 | C#C[C@H](C)Oc1cnc(/C(F)=C/c2ccc(F)c([C@@]3(C)N=C(N)S[C@@]4(S(C)(=O)=O)C[C@H]43)c2)cn1 [Example 232, (1R,5S,6S)-5-(5-((Z)-2-(5-((S)-but-3-yn-2-yloxy)pyrazin-2-yl)-2-fluorovinyl)-2-fluorophenyl)-5-methyl-1-(methylsulfonyl)-2-thia-4-azabicyclo[4.1.0]hept-3-en-3-amine] | 88.5 µM | 0.0395 µM | 0.001 µM | 0.108 µM | 
12 | CNC(=O)[C@]12C[C@H]1[C@@](C)(c1cc(/C=C(\F)c3cnc(C#CC4CC4)cn3)ccc1F)N=C(N)S2 [Example 165, (1S,5S,6S)-3-amino-5-(5-((Z)-2-(5-(cyclopropylethynyl)pyrazin-2-yl)-2-fluorovinyl)-2-fluorophenyl)-N,5-dimethyl-2-thia-4-azabicyclo[4.1.0]hept-3-ene-1-carboxamide] | 538 µM | 0.121 µM | 0.00707 µM | 0.307 µM | 
13 | C[C@]1(c2cc(/C=C(\F)c3ccc(Cl)cn3)ccc2F)N=C(N)S[C@@]2(C(=O)Nc3ccccc3)C[C@H]21 [Example 118, (1S,5S,6S)-3-amino-5-(5-((Z)-2-(5-chloropyridin-2-yl)-2-fluorovinyl)-2-fluorophenyl)-5-methyl-N-phenyl-2-thia-4-azabicyclo[4.1.0]hept-3-ene-1-carboxamide] | 13.4 µM | 0.291 µM | 0.0299 µM | 0.047 µM | 
14 | CCCC#Cc1ccc(/C(F)=C/c2ccc(F)c([C@@]3(C)N=C(N)S[C@@]4(C(=O)NC)C[C@H]43)c2)nc1 [Example 361, (1S,5S,6S)-3-amino-5-(2-fluoro-5-((Z)-2-fluoro-2-(5-(pent-1-yn-1-yl)pyridin-2-yl)vinyl)phenyl)-N,5-dimethyl-2-thia-4-azabicyclo[4.1.0]hept-3-ene-1-carboxamide] | 34 µM | 1.41 µM | 0.058 µM | 0.49 µM | 
15 | C[C@]1(c2cc(/C=C(\F)c3ccc(C#N)cn3)ccc2F)N=C(N)S[C@@]2(C(=O)N3Cc4ccccc4C3)C[C@H]21 [Example 129, 6-((Z)-2-(3-((1S,5S,6S)-3-amino-1-(isoindoline-2-carbonyl)-5-methyl-2-thia-4-azabicyclo[4.1.0]hept-3-en-5-yl)-4-fluorophenyl)-1-fluorovinyl)nicotinonitrile bis(2,2,2-trifluoroacetate)] | 133 µM | 0.0165 µM | 0.00117 µM | 0.0311 µM | 
16 | C[C@]1(c2cc(/C=C(\F)c3ccc(C#CC4CC4)cn3)ccc2F)N=C(N)S[C@@]2(C(=O)N3CCOCC3)C[C@H]21 [Example 357, ((1S,5S,6S)-3-amino-5-(5-((Z)-2-(5-(cyclopropylethynyl)pyridin-2-yl)-2-fluorovinyl)-2-fluorophenyl)-5-methyl-2-thia-4-azabicyclo[4.1.0]hept-3-en-1-yl)(morpholino)methanone] | 29.1 µM | 0.155 µM | 0.015 µM | 0.43 µM | 
17 | C[C@H]1[C@@H](F)CCN1C(=O)[C@]12C[C@H]1[C@@](C)(c1cc(/C=C(\F)c3ccc(C#N)cn3)ccc1F)N=C(N)S2 [Example 306, 6-((Z)-2-(3-((1S,5S,6S)-3-amino-1-((2S,3S)-3-fluoro-2-methylpyrrolidine-1-carbonyl)-5-methyl-2-thia-4-azabicyclo[4.1.0]hept-3-en-5-yl)-4-fluorophenyl)-1-fluorovinyl)nicotinonitrile] | 16.2 µM | 0.001 µM | 0.002 µM | 0.111 µM | 
18 | CN(C)C(=O)[C@]12C[C@H]1[C@@](C)(c1cc(/C=C(\F)c3cnc(OCC#N)cn3)ccc1F)N=C(N)S2 [Example 158, (1S,5S,6S)-3-amino-5-(5-((Z)-2-(5-(cyanomethoxy)pyrazin-2-yl)-2-fluorovinyl)-2-fluorophenyl)-N,N,5-trimethyl-2-thia-4-azabicyclo[4.1.0]hept-3-ene-1-carboxamide] | 400 µM | 0.119 µM | 0.116 µM | 0.0927 µM | 
19 | CNC(=O)[C@]12C[C@H]1[C@@](C)(c1cc(/C=C(\F)c3cnc(C#CCO)cn3)ccc1F)N=C(N)S2 [Example 362, (1S,5S,6S)-3-amino-5-(2-fluoro-5-((Z)-2-fluoro-2-(5-(3-hydroxyprop-1-yn-1-yl)pyrazin-2-yl)vinyl)phenyl)-N,5-dimethyl-2-thia-4-azabicyclo[4.1.0]hept-3-ene-1-carboxamide] | 349 µM | 0.104 µM | 0.004 µM | 0.365 µM | 
20 | C#CCOc1cnc(/C(F)=C/c2cnc(F)c([C@@]3(C)N=C(N)S[C@@]4(C(=O)N5CC[C@H](F)C5)C[C@H]43)c2)cn1 [Example 280, ((1S,5S,6S)-3-amino-5-(2-fluoro-5-((Z)-2-fluoro-2-(5-(prop-2-yn-1-yloxy)pyrazin-2-yl)vinyl)pyridin-3-yl)-5-methyl-2-thia-4-azabicyclo[4.1.0]hept-3-en-1-yl)((S)-3-fluoropyrrolidin-1-yl)methanone] | 115 µM | 0.0016 µM | 0.0013 µM | 0.119 µM | 
